Measurements as given in patent publication US6737256B2, “Overcoming DAPA aminotransferase bottlenecks in biotin vitamers biosynthesis” (Roche Vitamins Inc., priority 1997, dated 2004).
Read-outs that look alike come from different tables or passages of the source.

Columns and labels:
[1] = target: T1, B. subtilis DAPA aminotransferase (Bacillus subtilis, UniProt P53555); assay type: biochemical; conditions: for DAPA aminotransferase specfic activity: compound added to extract of BI611; for function as amino donor with the B. subtilis enzyme / stimulation of DAPA aminotransferase activity: result in words; for stimulation of DAPA aminotransferase activity: dialyzed BI611 extract
T1 construct: A cell free extract prepared from a B. subtilis strain deleted for the bio operon but containing multiple copies (4-6) of the B. subtilis bioA gene; made in house; host or cells: B. subtilis BI611 (Δbio:cat, bpr:[P26bioA]4-6), cell-free extract (dialyzed for A1, crude for A2)
T1 sequence (P53555 1-448): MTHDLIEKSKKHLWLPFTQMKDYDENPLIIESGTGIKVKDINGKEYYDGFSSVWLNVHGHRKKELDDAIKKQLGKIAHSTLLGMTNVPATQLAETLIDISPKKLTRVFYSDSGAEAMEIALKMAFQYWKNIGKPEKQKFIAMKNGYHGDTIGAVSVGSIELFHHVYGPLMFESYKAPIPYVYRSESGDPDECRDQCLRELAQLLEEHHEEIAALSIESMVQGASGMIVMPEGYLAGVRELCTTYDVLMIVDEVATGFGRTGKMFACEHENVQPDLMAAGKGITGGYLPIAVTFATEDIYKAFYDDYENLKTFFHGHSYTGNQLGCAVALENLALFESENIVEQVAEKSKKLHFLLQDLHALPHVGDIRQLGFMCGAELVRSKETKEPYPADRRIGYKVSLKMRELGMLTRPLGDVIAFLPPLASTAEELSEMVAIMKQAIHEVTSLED
Procedure: The assay for DAPA aminotransferase is described by Eisenberg and Stoner in 1971 (J. Bacteriol. 108:1135-1140). In this assay, the substrate KAPA is incubated with S-adenosylmethionine (SAM) in the presence of the cofactor pyridoxal 5′-phosphate and cell extract. We measured the amount of DAPA produced in a plate bioassay utilizing an E. coli bioA strain. Streptavidin (8 μg/ml) was added to the assay mix because extracts of many of the strains to be assayed contained significant amounts of biotin and dethiobiotin which fed the E. coli indicator strain used in the bioassay. Contamination by trace amounts of biotin and dethiobiotin was also removed from the KAPA preparation used as substrate by passing the material over an avidin-agarose column. The E. coli bioA109 strain (MEC1) was used to measure DAPA aminotransferase activity in the bioassay. […] Eisenberg's DAPA-sensitive strain was obtained from the E. coli Genetic Stock Center at Yale University.
To determine whether B. subtilis DAPA aminotransferase activity could be stimulated by addition of other amino donors to the reaction mix, various amino donors were screened for their ability to stimulate enzyme activity in vitro. A cell free extract prepared from a B. subtilis strain deleted for the bio operon but containing multiple copies (4-6) of the B. subtilis bioA gene transcribed from a phage SP01-26 promoter with the cassette integrated at the bpr locus, BI611 (Δbio:cat, bpr:[P26bioA]4-6), was dialyzed to remove any endogenous levels of the amino donor and the extract was assayed in the presence of each of the standard amino acids and several other amine compounds. […] In a subsequent experiment, various lysine derivatives and analogs were tested for stimulation of activity (Table 2). […] The structure of (S)-2-aminoethyl-L-cysteine is identical to L-lysine except that the γ carbon has been replaced by a sulfur atom.

[2] = target: T2, E. coli DAPA aminotransferase (Escherichia coli, UniProt P12995); conditions: cited from earlier work; for Km: Stoner and Eisenberg 1975
T2 sequence (P12995 whole entry): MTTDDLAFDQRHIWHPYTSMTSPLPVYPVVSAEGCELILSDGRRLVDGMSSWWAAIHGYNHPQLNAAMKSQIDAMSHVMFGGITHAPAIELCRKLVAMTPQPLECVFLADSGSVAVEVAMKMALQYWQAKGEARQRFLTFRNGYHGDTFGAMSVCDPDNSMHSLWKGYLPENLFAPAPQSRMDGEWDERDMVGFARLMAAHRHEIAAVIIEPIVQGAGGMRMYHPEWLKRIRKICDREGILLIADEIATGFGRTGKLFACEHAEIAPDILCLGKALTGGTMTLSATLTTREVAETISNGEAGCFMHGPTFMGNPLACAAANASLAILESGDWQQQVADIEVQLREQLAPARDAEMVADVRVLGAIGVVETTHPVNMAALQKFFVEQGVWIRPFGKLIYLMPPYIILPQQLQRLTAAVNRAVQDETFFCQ

[3] = target: T1, B. subtilis DAPA aminotransferase; test: Kinetic studies of B. subtilis DAPA aminotransferase (crude cell-free extract of BI611); assay type: biochemical; conditions: for Km: crude cell-free extract of BI611
Procedure: (§1) The assay for DAPA aminotransferase is described by Eisenberg and Stoner in 1971 (J. Bacteriol. 108:1135-1140). In this assay, the substrate KAPA is incubated with S-adenosylmethionine (SAM) in the presence of the cofactor pyridoxal 5′-phosphate and cell extract. We measured the amount of DAPA produced in a plate bioassay utilizing an E. coli bioA strain. Streptavidin (8 μg/ml) was added to the assay mix because extracts of many of the strains to be assayed contained significant amounts of biotin and dethiobiotin which fed the E. coli indicator strain used in the bioassay. Contamination by trace amounts of biotin and dethiobiotin was also removed from the KAPA preparation used as substrate by passing the material over an avidin-agarose column. The E. coli bioA109 strain (MEC1) was used to measure DAPA aminotransferase activity in the bioassay. This E.coli bioA strain, developed for the assay by Eisenberg, was reported to be many times more sensitive to DAPA than any other bioA mutant. Eisenberg's DAPA-sensitive strain was obtained from the E. coli Genetic Stock Center at Yale University.
The kinetic properties of B. subtilis DAPA aminotransferase were investigated using a crude cell-free extract prepared from BI611 (Δbio:cat, bpr:[P26bioA]4-6). […] The conversion of substrate to product was approximately 10 to 40% in 20 minutes. […] The pH optimum for the transamination reaction was determined to be pH 8.6. […] The […] enzyme was subject to inhibition by KAPA at levels above 20 μM. […] The enzyme became saturated for lysine at concentrations between 20 and 40 mM.
The substrate inhibition of B. subtilis DAPA aminotransferase by KAPA provides evidence for a double displacement or ping-pong reaction mechanism, as has been shown for E.coli DAPA aminotransferase (Stoner et al., J. Biol. Chem. 250:4037-4043, 1975). KAPA concentration was varied at four different fixed lysine concentrations, and initial velocity data was collected and plotted in a double reciprocal form. […]

[4] = target: T2, E. coli DAPA aminotransferase; test: DAPA aminotransferase assay of extracts of B. subtilis strains containing E. coli bioA; assay type: biochemical; conditions: strains lacking native bioA, with E. coli bioA
Procedure: as §1
(§2) The enzyme reaction was approximately linear with time for at least 60 minutes. […] Enzyme activity was destroyed by boiling the extract, or freezing and thawing, although freezing the extract in the presence of 10% DMSO appeared to stabilize the enzyme. […]

[5] = target: T1, B. subtilis DAPA aminotransferase; test: DAPA aminotransferase assay of BI282 extract, dependence on SAM; assay type: biochemical
Procedure: as §1
A B. subtilis strain, BI282, engineered to overexpress B. subtilis BioA protein was assayed for DAPA aminotransferase activity: BI282 contains a P15 bio cassette amplified at the bio locus (described in Patent Application 0635572A2). […]

[6] = target: T3, S. marcescens DAPA aminotransferase (Serratia marcescens, UniProt P36568); test: DAPA aminotransferase assay of extracts of B. subtilis strains containing S. marcescens bioA; assay type: biochemical; conditions: strains lacking native bioA, with S. marcescens bioA
T3 construct: made in house; host or cells: B. subtilis strain lacking the native bioA gene, carrying S. marcescens bioA; cell extract
T3 sequence (P36568 whole entry): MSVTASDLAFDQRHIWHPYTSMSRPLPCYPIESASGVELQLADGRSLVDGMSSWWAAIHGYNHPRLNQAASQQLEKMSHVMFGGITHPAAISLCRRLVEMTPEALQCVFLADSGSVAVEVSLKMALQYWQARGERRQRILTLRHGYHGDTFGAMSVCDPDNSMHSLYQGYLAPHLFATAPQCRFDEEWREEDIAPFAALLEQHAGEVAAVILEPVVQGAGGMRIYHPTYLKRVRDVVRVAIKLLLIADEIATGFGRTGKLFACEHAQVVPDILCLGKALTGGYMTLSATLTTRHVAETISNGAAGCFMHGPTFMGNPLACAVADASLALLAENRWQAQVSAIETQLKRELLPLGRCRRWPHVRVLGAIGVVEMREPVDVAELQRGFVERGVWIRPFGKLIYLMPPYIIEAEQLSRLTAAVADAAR
Procedure: as §1, §2

[7] = system: B. subtilis strains, PY79, BI282, and BI603; test: Sensitivity of B. subtilis strains to lysine analogs on minimal medium; assay type: cell-based; conditions: minimal medium with no additive, with threonine, or with DAP plus threonine
Procedure: Three out of the four classical cases of lysine deregulated mutants were isolated by selecting for lysine analog resistance. B. subtilis strains, PY79 (Youngman et al., Plasmid 12:1-9, 1984), BI282, and BI603 were tested for sensitivity to four lysine analogs, on minimal medium with no additive, with threonine, or with DAP plus threonine. The purpose of the additives was to focus the selection on the lysC gene, that encodes the lysine sensitive aspartokinase II. […] All three strains behaved similarly; all were sensitive to AEC in all three media.

Compound: NCCCCC(N)C(=O)O (racemic) [DL-lysine (>98%), DL-lysine]
- DAPA aminotransferase specfic activity [1]: 0.35 nmol/min/mg

Compound: NCCCC[C@@H](N)C(=O)O [D-lysine]
- DAPA aminotransferase specfic activity [1]: 0.19 nmol/min/mg
- function as amino donor with the B. subtilis enzyme [1]: function as amino donors

Compound: CC(N)C(=O)CCCCCC(=O)O (stereo not shown) [KAPA, 8-amino-7-ketopelargonic acid]
- KAPA level above which enzyme was subject to inhibition ([2]; Eisenberg and Stoner 1971): above 20 μM
- Km ([2]; read-out: Km for KAPA): 1.2 µM
- Km ([3]; read-out: apparent Km for KAPA): 1 to 5 µM
- KAPA concentration above which inhibition of activity was observed ([3]; lysine constant at 19 mM): above 80 μM

Compound: NCCCC[C@H](N)C(=O)O [L-lysine]
- DAPA aminotransferase specfic activity ([1]; listed as L-lysine (>98%)): 0.76 nmol/min/mg
- DAPA aminotransferase specfic activity ([1]; listed as L-lysine (>99%)): 0.56 nmol/min/mg
- function as amino donor with the B. subtilis enzyme [1]: function as amino donors
- stimulation of DAPA aminotransferase activity ([1]; listed as L-lysine hydrochloride): stimulated DAPA aminotransferase activity
- stimulation of DAPA aminotransferase activity ([1]; listed as L-lysine(>99% pure)): stimulate activity
- Km ([3]; read-out: apparent Km for lysine): 2000 to 25000 µM

Compound: CC(=O)N[C@@H](CCCCN)C(=O)O [Nα-acetyl-L-lysine]
- DAPA aminotransferase specfic activity [1]: 0 nmol/min/mg

Compound: CC(=O)NCCCC[C@H](N)C(=O)O [Nε-acetyl-L-lysine]
- DAPA aminotransferase specfic activity [1]: 0 nmol/min/mg

Compound: CNCCCC[C@H](N)C(=O)O [Nε-methyl-L-lysine]
- DAPA aminotransferase specfic activity [1]: 0 nmol/min/mg

Compound: C[S+](CC[C@H](N)C(=O)O)C[C@H]1O[C@@H](n2cnc3c(N)ncnc32)[C@H](O)[C@@H]1O (stereo partly shown) [SAM, S-adenosylmethionine]
- dependence of enzyme activity on presence of SAM [4]: dependent on the presence of exogenous SAM
- dependence of enzyme activity on presence of SAM [5]: not dependent on the presence of SAM
- Km ([2]; purified E. coli enzyme, read-out: Km for SAM): 200 µM
- function as amino donor with the B. subtilis enzyme [1]: not a significant amino donor
- dependence of enzyme activity on presence of SAM [6]: dependent on the presence of exogenous SAM

Compound: N[C@H](CCC[C@H](N)C(=O)O)C(=O)O [diaminopimelic acid]
- DAPA aminotransferase specfic activity [1]: 0 nmol/min/mg

Compound: (S)-2-aminoethyl-L-cysteine
- inhibition of growth [7]: inhibited growth
- DAPA aminotransferase specfic activity [1]: 0.48 nmol/min/mg
- function as amino donor with the B. subtilis enzyme [1]: function as amino donors
- stimulation of DAPA aminotransferase activity [1]: stimulate activity

Compound: gly-lys
- DAPA aminotransferase specfic activity [1]: 0 nmol/min/mg

Compound: lys-gly
- DAPA aminotransferase specfic activity [1]: 0 nmol/min/mg
